Data taken from the supplement of paper PMC11061612.

Legend:
MK-2206 = compound: NC1(c2ccc(-c3nc4ccn5c(=O)[nH]nc5c4cc3-c3ccccc3)cc2)CCC1 [MK-2206]; settings: max 10 µM
In short: (§1)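 Cancer cell lines were seeded in 1536-well plates in 7.5 μl DMEM/F12 or RPMI with 10% FBS, held 24 hours at 37°C and 5% CO2, then dosed for 72 hours (final DMSO typically 0.2%). Viability was read by CellTiter-Glo 2.0 luminescence and scaled between blank-well and DMSO-well means. The single-agent IC50 comes from dose responses fitted to a two-parameter logistic curve with a non-linear mixed effects model.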

AZD2811 = compound: CCN(CCO)CCCOc1ccc2c(Nc3cc(CC(=O)Nc4cccc(F)c4)[nH]n3)ncnc2c1 [AZD2811]; settings: max 1 µM
In short: as §1

AZD5991 = compound: Cc1c2c(nn1C)CSCc1cc(n(C)n1)CSc1cc(c3ccccc3c1)OCCCc1c(C(=O)O)n(C)c3c-2c(Cl)ccc13 [AZD5991]; settings: max 1 µM
In short: as §1

Gefitinib = compound: COc1cc2ncnc(Nc3ccc(F)c(Cl)c3)c2cc1OCCCN1CCOCC1 [Gefitinib]; settings: max 10 µM
In short: as §1

AZD5153 = compound: COc1nnc2ccc(N3CCC(c4ccc(OCCN5CCN(C)C(=O)[C@H]5C)cc4)CC3)nn12 [AZD5153]; settings: max 1 µM
In short: as §1

SN-38 = compound: CCc1c2c(nc3ccc(O)cc13)-c1cc3c(c(=O)n1C2)COC(=O)[C@]3(O)CC [SN-38]; settings: max 0.3 µM
In short: as §1

Lapatinib = compound: CS(=O)(=O)CCNCc1ccc(-c2ccc3ncnc(Nc4ccc(OCc5cccc(F)c5)c(Cl)c4)c3c2)o1 [Lapatinib]; settings: max 10 µM
In short: as §1

Prexasertib = compound: COc1cccc(OCCCN)c1-c1cc(Nc2cnc(C#N)cn2)n[nH]1 [Prexasertib]; settings: max 1 µM
In short: as §1

Doxorubicin = compound: COc1cccc2c1C(=O)c1c(O)c3c(c(O)c1C2=O)C[C@@](O)(C(=O)CO)C[C@@H]3O[C@H]1C[C@H](N)[C@H](O)[C@H](C)O1 [Doxorubicin]; settings: max 1 µM
In short: as §1

AZD7648 = compound: Cc1cc2ncnn2cc1Nc1ncc2c(n1)n(C1CCOCC1)c(=O)n2C [AZD7648]; settings: max 10 µM
In short: as §1

[1] = compound: O=C(Nc1ccc2[nH]nc(-c3ccncc3)c2c1)[C@@H]1CCN(CC(=O)N2CCN(c3ccc(-c4ncccn4)cc3)CC2)C1; settings: max 5 µM
In short: as §1

SRA737 = compound: N#Cc1cnc(Nc2cc(NC[C@H]3CNCCO3)c(C(F)(F)F)cn2)cn1 [SRA737]; settings: max 10 µM
In short: as §1

Gemcitabine = compound: Nc1ccn([C@@H]2O[C@H](CO)[C@@H](O)C2(F)F)c(=O)n1 [Gemcitabine]; settings: max 0.3 µM
In short: as §1

5-Fluorouracil = compound: O=c1[nH]cc(F)c(=O)[nH]1 [5-Fluorouracil]; settings: max 20 µM
In short: as §1

Venetoclax = compound: CC1(C)CCC(CN2CCN(c3ccc(C(=O)NS(=O)(=O)c4ccc(NCC5CCOCC5)c([N+](=O)[O-])c4)c(Oc4cnc5[nH]ccc5c4)c3)CC2)=C(c2ccc(Cl)cc2)C1 [Venetoclax]; settings: max 1 µM
In short: as §1

Dasatinib = compound: CC1=C(C(=CC=C1)Cl)NC(=O)C2=CN=C(S2)NC3=CC(=NC(=N3)C)N4CCN(CC4)CCO [Dasatinib]; settings: max 2 µM
In short: as §1

Crizotinib = compound: C[C@@H](Oc1cc(-c2cnn(C3CCNCC3)c2)cnc1N)c1c(Cl)ccc(F)c1Cl [Crizotinib]; settings: max 10 µM
In short: as §1

Paclitaxel = compound: CC(=O)O[C@H]1C(=O)[C@@]2(C)[C@H]([C@H](OC(=O)c3ccccc3)[C@]3(O)C[C@H](OC(=O)[C@H](O)[C@@H](NC(=O)c4ccccc4)c4ccccc4)C(C)=C1C3(C)C)[C@]1(OC(C)=O)CO[C@@H]1C[C@@H]2O [Paclitaxel]; settings: max 3 µM
In short: as §1

AZD6738 = compound: C[C@@H]1COCCN1C2=NC(=NC(=C2)C3(CC3)[S@](=N)(=O)C)C4=C5C=CNC5=NC=C4 [AZD6738]; settings: max 10 µM
In short: as §1

Taselisib = compound: Cc1nc(-c2cn3c(n2)-c2ccc(-c4cnn(C(C)(C)C(N)=O)c4)cc2OCC3)n(C(C)C)n1 [Taselisib]; settings: max 10 µM
In short: as §1

Etoposide = compound: COc1cc([C@@H]2c3cc4c(cc3[C@@H](O[C@@H]3O[C@@H]5CO[C@@H](C)O[C@H]5[C@H](O)[C@H]3O)[C@H]3COC(=O)[C@H]23)OCO4)cc(OC)c1O [Etoposide]; settings: max 10 µM
In short: as §1

AZD4320 = compound: CN(CC[C@H](CSC1=CC=CC=C1)NC2=C(C=C(C=C2)S(=O)(=O)NC(=O)C3=CC=C(C=C3)N4CCC(CC4)[C@H](C5=CC=CC=C5C6=CC=C(C=C6)Cl)O)S(=O)(=O)C(F)(F)F)CCO [AZD4320]; settings: max 1 µM
In short: as §1

AZD0156 = compound: CN(C)CCCOc1ccc(-c2ccc3ncc4c(c3c2)n(C2CCOCC2)c(=O)n4C)cn1 [AZD0156]; settings: max 3 µM
In short: as §1

Savolitinib = compound: C[C@@H](c1ccc2nccn2c1)n1nnc2ncc(-c3cnn(C)c3)nc21 [Savolitinib]; settings: max 1 µM
In short: as §1

Selumetinib = compound: Cn1cnc2c(F)c(Nc3ccc(Br)cc3Cl)c(C(=O)NOCCO)cc21 [Selumetinib]; settings: max 10 µM
In short: as §1

AZD5363 = compound: C1CN(CCC1(C(=O)N[C@@H](CCO)C2=CC=C(C=C2)Cl)N)C3=NC=NC4=C3C=CN4 [AZD5363]; settings: max 10 µM
In short: as §1

Alisertib = compound: COc1cc(Nc2ncc3c(n2)-c2ccc(Cl)cc2C(c2c(F)cccc2OC)=NC3)ccc1C(=O)O [Alisertib]; settings: max 10 µM
In short: as §1

SG3199 = compound: CC1=CN2[C@@H](C1)C=NC3=CC(=C(C=C3C2=O)OC)OCCCCCOC4=C(C=C5C(=C4)N=C[C@@H]6CC(=CN6C5=O)C)OC [SG3199]; settings: max 0.001 µM
In short: as §1

AZD1390 = compound: CC(C)n1c(=O)n(C)c2cnc3cc(F)c(-c4ccc(OCCCN5CCCCC5)nc4)cc3c21 [AZD1390]; settings: max 0.3 µM
In short: as §1

Trametinib = compound: CC(=O)Nc1cccc(-n2c(=O)n(C3CC3)c(=O)c3c(Nc4ccc(I)cc4F)n(C)c(=O)c(C)c32)c1 [Trametinib]; settings: max 1 µM
In short: as §1

Palbociclib = compound: CC(=O)c1c(C)c2cnc(Nc3ccc(N4CCNCC4)cn3)nc2n(C2CCCC2)c1=O [Palbociclib]; settings: max 10 µM
In short: as §1

AZD8186 = compound: C[C@@H](Nc1cc(F)cc(F)c1)c1cc(C(=O)N(C)C)cc2c(=O)cc(N3CCOCC3)oc12 [AZD8186]; settings: max 10 µM
In short: as §1

Carboplatin = compound: C1CC(C1)(C(=O)[O-])C(=O)[O-].N.N.[Pt+2] [Carboplatin]; settings: max 10 µM
In short: as §1

AZD1775 = compound: C=CCn1c(=O)c2cnc(Nc3ccc(N4CCN(C)CC4)cc3)nc2n1-c1cccc(C(C)(C)O)n1 [AZD1775]; settings: max 3 µM
In short: as §1

Olaparib = compound: O=C(c1cc(Cc2n[nH]c(=O)c3ccccc23)ccc1F)N1CCN(C(=O)C2CC2)CC1 [Olaparib]; settings: max 10 µM
In short: as §1

Cell Line | IC50, cell viability 72 h (MK-2206) | IC50, cell viability 72 h (AZD2811) | IC50, cell viability 72 h (AZD5991) | IC50, cell viability 72 h (Gefitinib) | IC50, cell viability 72 h (AZD5153) | IC50, cell viability 72 h (SN-38) | IC50, cell viability 72 h (Lapatinib) | IC50, cell viability 72 h (Prexasertib) | IC50, cell viability 72 h (Doxorubicin) | IC50, cell viability 72 h (AZD7648) | IC50, cell viability 72 h [1] | IC50, cell viability 72 h (SRA737) | IC50, cell viability 72 h (Gemcitabine) | IC50, cell viability 72 h (5-Fluorouracil) | IC50, cell viability 72 h (Venetoclax) | IC50, cell viability 72 h (Dasatinib) | IC50, cell viability 72 h (Crizotinib) | IC50, cell viability 72 h (Paclitaxel) | IC50, cell viability 72 h (AZD6738) | IC50, cell viability 72 h (Taselisib) | IC50, cell viability 72 h (Etoposide) | IC50, cell viability 72 h (AZD4320) | IC50, cell viability 72 h (AZD0156) | IC50, cell viability 72 h (Savolitinib) | IC50, cell viability 72 h (Selumetinib) | IC50, cell viability 72 h (AZD5363) | IC50, cell viability 72 h (Alisertib) | IC50, cell viability 72 h (SG3199) | IC50, cell viability 72 h (AZD1390) | IC50, cell viability 72 h (Trametinib) | IC50, cell viability 72 h (Palbociclib) | IC50, cell viability 72 h (AZD8186) | IC50, cell viability 72 h (Carboplatin) | IC50, cell viability 72 h (AZD1775) | IC50, cell viability 72 h (Olaparib)
BFTC-905 (Bladder Carcinoma) | > 10 µM | > 1 µM | > 1 µM | > 10 µM | 0.173 µM | 0.00455 µM | > 10 µM | 0.117 µM | 0.196 µM | > 10 µM | 1.05 µM | > 10 µM | 0.0107 µM | > 20 µM | > 1 µM | 1.53 µM | 5.24 µM | 0.00602 µM | 3.79 µM | 1.39 µM | 1.16 µM | > 1 µM | > 3 µM | > 1 µM | 6.56 µM | > 10 µM | 1.25 µM | > 0.001 µM | > 0.3 µM | 0.0864 µM | > 10 µM | > 10 µM | > 10 µM | 0.68 µM | > 10 µM
BL-41 (Burkitt's Lymphoma) | > 10 µM | 0.048 µM | 0.0482 µM | > 10 µM | 0.046 µM | 0.00217 µM | 6.1 µM | 0.00367 µM | 0.0377 µM | > 10 µM | > 5 µM | 2 µM | 0.0085 µM | > 20 µM | > 1 µM | > 2 µM | 2.44 µM | 0.00391 µM | 0.618 µM | > 10 µM | 0.342 µM | > 1 µM | > 3 µM | > 1 µM | > 10 µM | > 10 µM | 0.0285 µM | > 0.001 µM | > 0.3 µM | > 1 µM | > 10 µM | > 10 µM | > 10 µM | 0.264 µM | > 10 µM
